Reference: patent publication US11226337B2, “Chemoproteomic profiling of protein electrophilic and oxidative post-translational modifications” (Zenagem, LLC, priority 2017, dated 2022)

How the values were obtained:
Test in all cases: SILAC RP-ABPP
Format in all cases: cell-based
[1] = molecular target: T1, NT5DC2 5nucleotidase domaincontaining (Q9H857) (Homo sapiens, UniProt Q9H857); details: SILAC H/L, HEK293T
T1 construct: shared by both the endogenous and recombinant forms of these proteins; endogenous in cells; host or cells: HEK293T and MDA-MB-231
T1 sequence (Q9H857 1-520): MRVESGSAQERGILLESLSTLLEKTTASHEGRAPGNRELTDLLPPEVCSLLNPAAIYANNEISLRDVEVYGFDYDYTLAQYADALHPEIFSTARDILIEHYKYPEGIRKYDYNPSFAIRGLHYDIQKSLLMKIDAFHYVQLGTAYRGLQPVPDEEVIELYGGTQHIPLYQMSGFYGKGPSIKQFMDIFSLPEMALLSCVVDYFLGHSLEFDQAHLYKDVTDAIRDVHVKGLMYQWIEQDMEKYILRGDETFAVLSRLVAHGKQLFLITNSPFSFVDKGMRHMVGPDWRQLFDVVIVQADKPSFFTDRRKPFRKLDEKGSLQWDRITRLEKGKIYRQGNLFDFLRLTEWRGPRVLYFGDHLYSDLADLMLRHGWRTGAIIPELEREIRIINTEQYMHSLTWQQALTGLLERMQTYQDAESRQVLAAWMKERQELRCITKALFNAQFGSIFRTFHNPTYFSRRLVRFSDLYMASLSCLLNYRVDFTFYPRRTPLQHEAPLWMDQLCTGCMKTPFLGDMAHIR

[2] = molecular target: T2, SCPEP1 Retinoidinducible serine (Q9HB40) (Homo sapiens, UniProt Q9HB40); details: SILAC H/L
T2 construct: In Situ Labelling of Cells with Hydrazine Probes for MS Experiments; endogenous in cells; host or cells: HEK293T and MDA-MB-231
T2 sequence (Q9HB40 27-452): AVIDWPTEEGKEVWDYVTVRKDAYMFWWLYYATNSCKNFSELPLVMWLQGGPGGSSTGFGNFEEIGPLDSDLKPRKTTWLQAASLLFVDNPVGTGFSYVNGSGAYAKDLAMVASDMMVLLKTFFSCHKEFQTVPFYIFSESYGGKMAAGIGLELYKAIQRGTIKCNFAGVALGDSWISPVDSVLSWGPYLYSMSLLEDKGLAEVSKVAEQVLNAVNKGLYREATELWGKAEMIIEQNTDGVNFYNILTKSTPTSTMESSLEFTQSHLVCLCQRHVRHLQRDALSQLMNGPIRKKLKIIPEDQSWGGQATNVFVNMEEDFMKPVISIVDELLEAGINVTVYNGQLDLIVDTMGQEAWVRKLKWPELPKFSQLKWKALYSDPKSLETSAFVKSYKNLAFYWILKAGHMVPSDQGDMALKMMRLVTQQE

[3] = molecular target: T3, SERPINE1 Plasminogen activator inhibitor 1 (P05121) (Homo sapiens, UniProt P05121); details: SILAC H/L, MDA-MB-231
T3 construct: In Situ Labelling of Cells with Hydrazine Probes for MS Experiments; endogenous in cells
T3 sequence (P05121 24-402): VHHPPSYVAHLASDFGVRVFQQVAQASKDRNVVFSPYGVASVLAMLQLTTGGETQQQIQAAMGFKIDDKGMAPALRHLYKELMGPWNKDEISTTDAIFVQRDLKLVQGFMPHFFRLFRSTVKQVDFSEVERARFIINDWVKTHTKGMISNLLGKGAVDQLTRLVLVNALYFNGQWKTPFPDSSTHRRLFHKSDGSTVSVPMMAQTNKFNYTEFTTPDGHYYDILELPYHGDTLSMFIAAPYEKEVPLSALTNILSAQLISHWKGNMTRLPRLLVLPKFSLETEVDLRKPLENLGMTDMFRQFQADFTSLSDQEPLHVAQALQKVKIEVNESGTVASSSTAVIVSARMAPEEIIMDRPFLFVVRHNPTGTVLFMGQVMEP

[4] = molecular target: T4, GAA Lysosomal alphaglucosidase (P10253) (Homo sapiens, UniProt P10253); details: SILAC H/L, MDA-MB-231
T4 construct: In Situ Labelling of Cells with Hydrazine Probes for MS Experiments; endogenous in cells

| enrichment ratioavg ([1]; probe 2 1 mM 0.5 h vs probe 4) | competition ratioavg ([1]; probe 2 vs probe 2+10x probe 4) | enrichment ratioavg ([2]; probe 2 1 mM 0.5 h vs probe 4, MDA-MB-231) | competition ratioavg ([2]; probe 2 vs probe 2+10x probe 4, MDA-MB-231) | enrichment ratioavg ([3]; probe 2 1 mM 0.5 h vs probe 4) | competition ratioavg ([3]; probe 2 vs probe 2+10x probe 4) | enrichment ratioavg ([4]; probe 2 1 mM 0.5 h vs probe 4) | competition ratioavg ([4]; probe 2 vs probe 2+10x probe 4) | Compound | enrichment ratioavg ([1]; probe 1 3 mM 0.5 h vs probe 3) | competition ratioavg ([1]; probe 1 vs probe 1+10x probe 3) | enrichment ratioavg ([2]; probe 1 3 mM 0.5 h vs probe 3, HEK293T) | competition ratioavg ([2]; probe 1 vs probe 1+10x probe 3, HEK293T) | enrichment ratioavg ([3]; probe 1 3 mM 0.5 h vs probe 3) | competition ratioavg ([3]; probe 1 vs probe 1+10x probe 3) | enrichment ratioavg ([4]; probe 1 3 mM 0.5 h vs probe 3) | competition ratioavg ([4]; probe 1 vs probe 1+10x probe 3) |
| --- | --- | --- | --- | --- | --- | --- | --- | --- | --- | --- | --- | --- | --- | --- | --- | --- |
| – | – | – | – | – | – | – | – | C#CCNN.Cl [probe 1, prop-2-yn-1-ylhydrazine hydrochloride] | 11 | 3 | 5 | 2 | 17 | 3 | 9 | 2 |
| 16 | 4 | 19 | 4 | 20 | 3 | 20 | 4 | C#CCCNC(=O)c1ccc(NN)cc1.Cl [probe 2, N-(but-3-yn-1-yl)-4-hydrazinylbenzamide hydrochloride] | – | – | – | – | – | – | – | – |
